Data taken from PMC2630844, “Characterizing the Anti-HIV Activity of Papuamide A” (Marine Drugs, 2008).
*1 amine or outer side, *2 acyl side, *3 side chain or, on linkers, in order; H or OH if unused. Where a SMILES comes first, the peptide text is derived from it. Bridges are numbered along the chain shown (N, C = ends). Side-chain parts run from the residue outwards. [ ]: non-standard residue; d: D form. The star is where a group is joined. Gln(3S,4R-Me2) = C[C@H]([C@H](N)C(=O)O)[C@@H](C)C(N)=O; dTyr(βR-OMe) = CO[C@H](c1ccc(O)cc1)[C@@H](N)C(=O)O; Biotin = O=C1N[C@H]2[C@H](CS[C@H]2CCCCC(=O)*)N1; X3 = CC(C)[C@@H](O[*:3])[C@H](N[*:1])C(=O)[*:2]; X1 = CCC(C)/C=C(C)/C=C\C(O)C(C)(O)C(=O)*; X2 = CC(N[*:3])[C@H](N[*:1])C(=O)[*:2]; NMeT = CN[C@H](C(=O)O)[C@@H](C)O; Pip = O=C(O)[C@@H]1CCCCN1; Ahx = NCCCCCC(=O)O

Assays:
[1] = test system: DHIV-3 pseudotype virus expressing X4 tropic envelope (IIINL4), CEM-SS cells; assay type: cell-based, HIV; conditions: duplicate determinations
[2] = test system: HIV-1NL4-3 (X4 tropic virus) entry into HeLa T4+ cells; experiment: Virion based fusion assay (BlaM-Vpr), X4 tropic virus; assay type: cell-based; conditions: n≥4
[3] = test system: pseudotype virus expressing JRFL (R5 tropic) envelope, CEM.NKR-CCR5 cells; assay type: cell-based, HIV; conditions: 178 nM (Fig. 4; text 174nM); flow cytometry of GFP, 48 h; n≥3
[4] = test system: pseudotype virus expressing LAI (X4 tropic) envelope, CEM-SS cells; assay type: cell-based, HIV; conditions: 178 nM (Fig. 4; text 174nM); flow cytometry of GFP, 48 h; n≥3
[5] = test system: 20% phosphatidylserine / 80% phosphatidylcholine vesicles; experiment: Surface plasmon resonance, PS:PC vesicle binding; conditions: 20% PS, 80% PC vesicles; data not shown
Description: (§1) Papuamide A’s ability to bind to phosphatidylserine was observed using surface plasmon resonance. Twenty percent phosphatidylserine and 80% phosphatidylcholine (PC) vesicles were tested alongside 100% PC vesicles. […] This indicates there is a preferential binding of papuamide A to phosphatidylserine. To determine if binding of PS alone was sufficient to inhibit viral entry, annexin V (AV) was tested in the virion based fusion assay.

[6] = test system: 100% phosphatidylcholine (PC) vesicles; experiment: Surface plasmon resonance, PC vesicle binding; conditions: 100% PC vesicles; data not shown
Description: as §1

[7] = test system: NL4-3 BlaM-Vpr virus entry, HeLa T4 cells; experiment: Papuamide A preincubation in virion fusion assay; assay type: cell-based, HIV-1; conditions: 178 nM (Fig. 6a) or 710 nM (method), n≥3
Description: HeLa T4 cells were infected with NL4-3 BlaM virus and treated with 710 nM papuamide A, following these three protocols: Virus pretreated with papuamide A for 30 minutes at room temperature prior to dilution and addition to the cells; Cells pretreated with papuamide A for 2 hours followed by aspiration of papuamide A containing medium and addition of virus; Virus and papuamide A added to the cells at the same time.

[8] = test system: HIV-1NL(AD8) (R5 tropic virus) entry into TZM-bl cells; experiment: Virion based fusion assay (BlaM-Vpr), R5 tropic virus
Description: Briefly, production of virus was accomplished by co-transfection of 20 μg of pMM310 (plasmid encoding β-lactamase linked to Vpr, BlaM-Vpr) [56],10 μg pAdVAntage (Invitrogen, Carlsbad, CA); and 60 μg pNL4-3(X4 tropic proviral DNA) [50] or pNL(AD8) (R5 tropic proviral DNA) [51] into 293FT cells using standard calcium phosphate transfection. Virus was collected after 48 hours and titered using the RETROtek p24 ELISA kit (ZeptoMatrix, Buffalo, NY). HeLaT4 or TZM-bl cells, 200μL at a concentration of 1 X 10^5 cells/mL, were plated into 96 well, black walled, flat bottom plates and placed in a 37°C, 5% CO2 humidified incubator overnight for attachment. Medium was aspirated and 200 μL of medium containing virus, at a predetermined p24 concentration of 200 ng/mL, was added with test compounds or vehicle. Cells were incubated at 37°C, 5% CO2 for 2 hours. Virus was aspirated off and cells rinsed twice with room temperature CO2 independent medium (Invitrogen, Carlsbad, CA). Cells were then loaded with CCF2-AM fluorescent substrate (Invitrogen, Carlsbad, CA) according to manufacturer’s protocol. Cells were incubated, protected from light, for 1 hour at room temperature and washed twice with room temperature CO2 independent medium. Next, 200 μL of room temperature CO2 independent medium supplemented with 10% FBS and 2.5mM probenecid (Sigma-Aldrich, St. Louis, MO) was added and the reaction was allowed to develop for 5–7 hours.
When fusion occurs, β-lactamase (BlaM) present in the virus cleaves the CCF2-AM substrate. This cleavage results in a change of the fluorescence emission from green to blue. Images of the cells were taken with a fluorescent microscope equipped with the appropriate filter set, Excitation filter 405±10 nm, Dicroic mirror 425, Emission Filter (blue) 460±20 nm, and Emission Filter (green) 530±15 nm. Using ImageJ, an image software program provided by NIH, the amount of green and blue fluorescence was determined. To quantify the observed fusion, a fluorescence ratio was calculated by dividing the amount of blue fluorescence by the amount of green fluorescence. This value was then normalized to the non-infected control by dividing the calculated values by the average control value.

[9] = test system: VSV-G pseudotype virus, CEM-SS cells; assay type: cell-based, HIV pseudotyped with vesicular stomatitis virus envelope; conditions: n≥3
[10] = molecular target: T1, sCD4 (Homo sapiens, UniProt P01730); experiment: Surface plasmon resonance, papuamide A - sCD4; assay type: binding
T1 construct: Soluble CD4 (sCD4)
Description: (§2) The expected response at saturation is determined by the following formula: LCR/MWL×MWA , (LCR=Ligand capture response, amount of papuamide A captured onto the biosensor chip; MWL=molecular weight of ligand, papuamide A; and MWA=molecular weight of analyte, the protein or peptide.)[23–26] The observed response, determined by the BIAcore instrument detector in response units (RU), can be lower than the expected response if the concentration of analyte used is below the dissociation constant (KD) concentration value, KD values were calculated by the software from the binding responses obtained with multiple concentrations of analyte. When this is the case, the fold difference in concentration values (KD/concentration of analyte used) is approximately proportionate to the fold difference in responses (expected response/observe response). Therefore, to correct for the expected response at the maximum concentration tested, the expected response at saturation was divided by the fold difference in concentration values to determine the expected response at the maximum value tested.
(§3) Binding interactions were quantified by surface plasmon resonance (SPR). Studies were performed at the University of Utah Protein Interactions facility on a BIAcore 3000 instrument. Briefly, papuamide A was biotinylated using the EZ-Link Sulfo-NHS-LC-LC-Biotin reagent (Pierce Biotechnology, Rockford, IL) with reaction products purified by reverse phase high performance liquid chromatography (HPLC). Biotinylation was confirmed by mass spec and presumed to target the free amine of the 2,3-diaminobutenoic acid. Biotinylated papuamide A was captured onto a chip with a carboxymethylated dextran matrix preimmobilized with streptavidin. Analytes were then flowed over the chip in hepes buffered saline (HBS) running buffer containing 1 mg/mL bovine serum albumin to reduce nonspecific binding. […] Data analyzed using the SCRUBBER software, developed by the University of Utah Protein Interactions Facility.

[11] = test system: pseudotype virus expressing vesicular stomatitis virus (VSV) envelope glycoprotein, CEM-SS cells; assay type: cell-based, HIV pseudotyped with vesicular stomatitis virus envelope; conditions: n≥3
[12] = Surface plasmon resonance, papuamide A - positive control peptide; assay type: binding
Description: as §2
Binding interactions were quantified by surface plasmon resonance (SPR). Studies were performed at the University of Utah Protein Interactions facility on a BIAcore 3000 instrument. […] Data analyzed using the SCRUBBER software, developed by the University of Utah Protein Interactions Facility.

[13] = test system: pseudotype virus expressing amphotropic murine leukemia virus (aMLV) envelope glycoprotein, CEM-SS cells; assay type: cell-based; conditions: 178 nM (Fig. 4; text 174nM); flow cytometry of GFP, 48 h; n≥3
[14] = test system: viral infection of cells preincubated overnight; experiment: Overnight preincubation of cells with papuamide A; assay type: cell-based, HIV; conditions: data not shown
[15] = test system: DHIV-3 pseudotype virus expressing IIINL4 envelope, CEM-SS cells; assay type: cell-based, HIV; conditions: papuamide A 178 nM with annexin V 0.1 μM; n=3
[16] = test system: pseudotype virus infection; assay type: cell-based, HIV; conditions: 174nM papuamide A; flow cytometry of GFP; data not shown
[17] = molecular target: gp120 (Human immunodeficiency virus type 1 group M subtype B, UniProt P03375); experiment: Surface plasmon resonance, papuamide A - gp120; assay type: binding, HIV
Description: as §2, §3

[18] = test system: phosphatidylserine (PS) containing liposomes; conditions: cited from earlier work
From the text: (§4) Papuamide B only differs from papuamide A by one methyl group. […] PS is a phospholipid normally present on the inner leaflet of the cell membrane, but during apoptosis the regulation of PS is altered and PS is present on the outer leaflet.

[19] = test system: liposomes composed solely of phosphatidylcholine; conditions: cited from earlier work
From the text: as §4

[20] = test system: HIV infection of monocyte and macrophage; conditions: binding of PS by Annexin V; cited from earlier work
From the text: as §4

[21] = test system: HIV T cell infection; conditions: binding of PS by Annexin V; cited from earlier work
From the text: as §4

For `Cc1cn([C@H]2C[C@H](N=[N+]=[N-])[C@@H](CO)O2)c(=O)[nH]c1=O` [AZT, azidothymidine], which “effect of delayed addition, 1 hour” value ([1]; C34 233 nM or AZT 3.7 μM added 1 hour after virus) is on record?
Its value is “no difference in activity”.

And the “effect of delayed addition, 2 hours” value ([1]; C34 233 nM or AZT 3.7 μM added 2 hours after virus)?
Its value is “only a minor loss of activity”.

And the “inhibition of viral entry” value ([2]; AZT at 18 μM, fluorescence ratio)?
Its value is “did not prevent viral entry”.

With `CCC(C)/C=C(C)/C=C\C(O)C(C)(O)C(=O)NCC(=O)N[C@H](C(=O)N[C@H](C(=O)N[C@H](C(=O)N[C@@H]1C(=O)N[C@H](COC)C(=O)NCC(=O)N[C@@H](C)C(=O)N(C)[C@@H]([C@@H](C)O)C(=O)N[C@H]([C@H](OC)c2ccc(O)cc2)C(=O)N2CCCC[C@H]2C(=O)O[C@@H]1C(C)C)[C@@H](C)[C@@H](C)C(N)=O)C(C)NC(=O)CCCCCNC(=O)CCCCCNC(=O)CCCC[C@@H]1SC[C@@H]2NC(=O)N[C@@H]21)[C@@H](C)O` (stereo partly drawn) [papuamide A] (X1-GT[X2]([Ahx-Ahx-Biotin])[Gln(3S,4R-Me2)][X3][dS](Me)GA[NMeT][dTyr(βR-OMe)][Pip]; ester 5-C) as the molecule, how does the “inhibition of infection” value [3] read?
The value was “inhibits infection”.

And the “inhibition of infection” value [4]?
Its value is “inhibits infection”.

What about the “SPR vesicle binding” value [5] of the same molecule?
Its value is “exhibited binding to papuamide A”.

And the “SPR vesicle binding” value [6]?
Its value is “did not”.

What about the “inhibition of viral entry after cell pretreatment” value ([7]; cells incubated with papuamide A 2 hours, removed, two washes, then infected) of the same molecule?
Its value is “did not result in inhibition of viral entry”.

And the “inhibition after virus pretreatment” value ([7]; virus pretreated 30 minutes then diluted)?
The value was “rate of inhibition similar to when papuamide A was added at the same time as virus”.

What about the “inhibition of R5 tropic virus entry” value ([8]; 710-43.4 nM, n≥3) of the same molecule?
Its value is “effectively inhibited the entry of the R5 tropic virus in a dose dependant manner”.

What about the “inhibition of X4 and R5 virus entry, papuamide A alongside annexin V” value ([8]; Fig. 7a, R5 (NL(AD8)), n≥4) of the same molecule?
The value was “remained active”.

What about the “decreased infectivity, pretreated versus simultaneous addition” value ([9]; 178 nM) of the same molecule?
The value was “the same as that observed when papuamide A was added to cells at the same time as VSV-G pseudotype virus”.

And the “decreased infectivity after virus pretreatment” value [9]?
Its value is ~50%.

And the “observed response lower than calculated expected response” value ([10]; at maximum sCD4 concentration tested)?
The value was 600 times lower.

What about the “Fold Difference of Responses” value ([10]; expected response at saturation / observed response, sCD4) of the same molecule?
Its value is 974.

And the “SPR binding response significance” value ([10]; sCD4)?
The value was “determined not to be significant”.

What about the “inhibition of infection” value [11] of the same molecule?
The value was “effectively inhibited infection”.

What about the “SPR interaction with positive control peptide” value [12] of the same molecule?
The value was “shown to interact with a positive control binding peptide”.

What about the Kd ([12]; calculated by software from binding responses at multiple peptide concentrations, max 5 μM, biotinylated papuamide A captured on chip) of the same molecule?
Its Kd is 176 µM.

And the “inhibition of infection” value [13]?
The value was “effectively inhibited infection”.

And the “inhibition of infection after overnight cell preincubation” value [14]?
The value was “failed to inhibit viral infection”.

And the “inhibition of viral entry” value ([2]; 710 nM papuamide A, 2 h infection, blue/green fluorescence ratio)?
Its value is “approximately 80%”.

And the “inhibition of X4 and R5 virus entry, papuamide A alongside annexin V” value ([2]; Fig. 7a, X4 (NL4-3))?
Its value is “remained active”.

And the “effect of papuamide A in presence of annexin V” value [15]?
Its value is “unchanged in the presence of AV”.

What about the inhibition of infection [16] of the same molecule?
Its inhibition of infection is “approximately 50%”.

What about the “observed response lower than calculated expected response” value ([17]; at maximum gp120 concentration tested) of the same molecule?
Its value is 54 times lower.

What about the “Fold Difference of Responses” value ([17]; expected response at saturation / observed response, gp120) of the same molecule?
The value was 1284.

And the “SPR binding response significance” value ([17]; gp120)?
Its value is “determined not to be significant”.

With papuamide B as the molecule, how does the “inhibition of viral entry” value ([8]; 710 nM, NL(AD8), n≥4) read?
The value was “approximately 80%”.

And the “binding to and leakage of liposomes” value [18]?
Its value is “bind to and cause leakage of phosphatidylserine (PS) containing liposomes”.

And the “binding to and leakage of liposomes” value [19]?
Its value is “not those composed solely of phosphatidylcholine”.

B1: annexin V: a specific binder of PS (protein, UniProt P08758 2-320, looked up)
Annexin A5: AQVLRGTVTDFPGFDERADAETLRKAMKGLGTDEESILTLLTSRSNAQRQEISAAFKTLFGRDLLDDLKSELTGKFEKLIVALMKPSRLYDAYELKHALKGAGTNEKVLTEIIASRTPEELRAIKQVYEEEYGSSLEDDVVGDTSGYYQRMLVVLLQANRDPDAGIDEAQVEQDAQALFQAGELKWGTDEEKFITIFGTRSVSHLRKVFDKYMTISGFQIEETIDRETSGNLEQLLLAVVKSIRSIPAYLAETLYYAMKGAGTDDHTLIRVMVSRSEIDLFNIRKEFRKNFATSLYSMIKGDTSGDYKKALLLLCGEDD
For B1, which “inhibition of R5 virus entry” value ([8]; annexin V at concentrations similar to and higher than that shown to inhibit HIV infection, NL(AD8), n≥4) is on record?
Its value is “did not have any inhibitory effect”.

What about the “inhibition of infection” value [20] of the same molecule?
Its value is “able to inhibit monocyte and macrophage infection”.

What about the “inhibition of infection” value [21] of the same molecule?
The value was “not T cell infection”.

And the “inhibition of X4 virus entry” value ([2]; annexin V at concentrations similar to and higher than that shown to inhibit HIV infection, NL4-3)?
Its value is “did not have any inhibitory effect”.
